The supplement of paper PMC10307832

How the values were obtained:
Test in all cases: relative viability (nuclei count vs DMSO), 5 days (fraction); higher = more cells survive
ChaGo-K-1 = system: ChaGo-K-1
Method in brief: (§1)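 One day after seeding in 1536-well plates, lung cancer cell lines were dosed by pin tool. Dosing was either single-drug or a fixed anchor-drug dose plus five library-drug doses (not always all listed) in √10 steps. After 5 days, nuclei were stained in one fix-and-stain step and counted on 4× images, and relative viability is the nuclei count of treated wells over that of vehicle wells, given as the median of duplicate plates.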

EMC-BAC-2 = system: EMC-BAC-2
Method in brief: as §1

EPLC-272H = system: EPLC-272H
Method in brief: as §1

H3255 = system: H3255
Method in brief: as §1

HCC-44 = system: HCC-44
Method in brief: as §1

HCC-827 = system: HCC-827
Method in brief: as §1

LCLC-103H = system: LCLC-103H
Method in brief: as §1

LCLC-97TM1 = system: LCLC-97TM1
Method in brief: as §1

NCI-H1355 = system: NCI-H1355
Method in brief: as §1

NCI-H1395 = system: NCI-H1395
Method in brief: as §1

NCI-H1651 = system: NCI-H1651
Method in brief: as §1

NCI-H1793 = system: NCI-H1793
Method in brief: as §1

NCI-H1944 = system: NCI-H1944
Method in brief: as §1

NCI-H1993 = system: NCI-H1993
Method in brief: as §1

NCI-H2085 = system: NCI-H2085
Method in brief: as §1

NCI-H2087 = system: NCI-H2087
Method in brief: as §1

NCI-H23 = system: NCI-H23
Method in brief: as §1

NCI-H2405 = system: NCI-H2405
Method in brief: as §1

NCI-H322M = system: NCI-H322M
Method in brief: as §1

NCI-H650 = system: NCI-H650
Method in brief: as §1

Work on `CC(C)Oc1cc(Nc2nc(N[C@@H](C)c3ccc(F)cn3)ncc2Cl)n[nH]1` [AZ23] + NC(=O)Nc1cc(-c2cccc(F)c2)sc1C(=O)N[C@H]1CCCNC1 [AZD7762] (partner 0.2 µM) yielded a relative viability (ChaGo-K-1; first compound 0.01 µM) of 0.93, a relative viability (ChaGo-K-1; first compound 0.03162 µM) of 0.811 and a relative viability (ChaGo-K-1; first compound 0.3162 µM) of 0.959. For the same compound, the relative viability (EMC-BAC-2; first compound 0.01 µM) was 0.983, the relative viability (EMC-BAC-2; first compound 0.03162 µM) was 1.21 and the relative viability (EMC-BAC-2; first compound 0.3162 µM) was 1.03. For the same compound, the relative viability (EPLC-272H; first compound 0.03162 µM) was 0.254, the relative viability (EPLC-272H; first compound 0.3162 µM) was 0.251 and the relative viability (H3255; first compound 0.01 µM) was 0.828. The relative viability (H3255; first compound 0.03162 µM) was 0.958, the relative viability (H3255; first compound 0.3162 µM) was 0.931 and the relative viability (HCC-44; first compound 0.01 µM) was 1.06. For the same compound, the relative viability (HCC-44; first compound 0.03162 µM) was 1.01, the relative viability (HCC-44; first compound 0.3162 µM) was 1.04 and the relative viability (HCC-827; first compound 0.01 µM) was 0.147. The relative viability (HCC-827; first compound 0.03162 µM) was 0.223, the relative viability (HCC-827; first compound 0.3162 µM) was 0.212 and the relative viability (LCLC-103H; first compound 0.01 µM) was 0.875. For the same compound, the relative viability (LCLC-103H; first compound 0.03162 µM) was 0.87, the relative viability (LCLC-103H; first compound 0.3162 µM) was 0.881 and the relative viability (LCLC-97TM1; first compound 0.01 µM) was 0.239. It also gave a relative viability (LCLC-97TM1; first compound 0.03162 µM) of 0.327, a relative viability (LCLC-97TM1; first compound 0.3162 µM) of 0.175 and a relative viability (NCI-H1355; first compound 0.01 µM) of 0.711. It also gave a relative viability (NCI-H1355; first compound 0.03162 µM) of 0.808, a relative viability (NCI-H1355; first compound 0.3162 µM) of 0.916 and a relative viability (NCI-H1395; first compound 0.03162 µM) of 0.375. The relative viability (NCI-H1395; first compound 0.3162 µM) was 0.432, the relative viability (NCI-H1651; first compound 0.01 µM) was 0.376 and the relative viability (NCI-H1651; first compound 0.03162 µM) was 0.541. It also gave a relative viability (NCI-H1651; first compound 0.3162 µM) of 0.623, a relative viability (NCI-H1793; first compound 0.01 µM) of 0.361 and a relative viability (NCI-H1793; first compound 0.03162 µM) of 0.498. It also gave a relative viability (NCI-H1793; first compound 0.3162 µM) of 1.3, a relative viability (NCI-H1944; first compound 0.01 µM) of 0.413 and a relative viability (NCI-H1944; first compound 0.03162 µM) of 0.532. The relative viability (NCI-H1944; first compound 0.3162 µM) was 0.646, the relative viability (NCI-H1993; first compound 0.01 µM) was 0.703 and the relative viability (NCI-H1993; first compound 0.03162 µM) was 0.749. It also gave a relative viability (NCI-H1993; first compound 0.3162 µM) of 0.965, a relative viability (NCI-H2085; first compound 0.01 µM) of 0.923 and a relative viability (NCI-H2085; first compound 0.03162 µM) of 0.975. For the same compound, the relative viability (NCI-H2085; first compound 0.3162 µM) was 1.08, the relative viability (NCI-H2087; first compound 0.01 µM) was 1.6 and the relative viability (NCI-H2087; first compound 0.03162 µM) was 1.41. It also gave a relative viability (NCI-H2087; first compound 0.3162 µM) of 1.32, a relative viability (NCI-H23; first compound 0.03162 µM) of 0.204 and a relative viability (NCI-H23; first compound 0.3162 µM) of 0.309. It also gave a relative viability (NCI-H2405; first compound 0.01 µM) of 0.538, a relative viability (NCI-H2405; first compound 0.03162 µM) of 0.864 and a relative viability (NCI-H2405; first compound 0.3162 µM) of 0.843. It also gave a relative viability (NCI-H322M; first compound 0.01 µM) of 0.468, a relative viability (NCI-H322M; first compound 0.03162 µM) of 0.527 and a relative viability (NCI-H322M; first compound 0.3162 µM) of 0.614. The relative viability (NCI-H650; first compound 0.01 µM) was 0.954, the relative viability (NCI-H650; first compound 0.03162 µM) was 1.14 and the relative viability (NCI-H650; first compound 0.3162 µM) was 1.12.
